Source: patent US8648045B2, “VDAC1 compositions and methods of use thereof for regulating apoptosis” (Ben Gurion University of the Negev Research and Development …, priority 2005, dated 2014)
Ends that are not written are not given here.

Columns and labels:
[1] = system: PBMCs isolated from CLL patients; assay type: cell-based, human
Experimental: Peripheral blood mononuclear cells (PBMCs) were isolated from venous blood of patients with chronic lymphocytic leukemia (CLL) by Ficoll-Paque PLUS (GE Healthcare, Israel) density gradient centrifugation. After informed consent, venous blood (10 ml) was drawn from CLL patients satisfying diagnostic criteria for CLL or from normal adult donors. Blood was collected into heparin tubes and diluted 1:1 with balance solution (composed of two stock solutions, A and B, in 1:9 ratio, respectively. Solution A contained: D-glucose 1%, CaCl2 5×10^−5M, MgCl2 9.8×10^−4M, KCl 5.4×10^−3M, Tris 0.145M, pH 7.6. Solution B contained NaCl 0.14M. The balance solution was prepared freshly every week. The diluted blood sample was subsequently carefully layered on Ficoll-Paque Plus (10 ml of diluted blood: 15 ml Ficoll) in 50 ml conical tubes. Tubes were centrifuged at 400×g (with minimal acceleration and deceleration) for 40 minutes at 18-20° C. The mononuclear cells fine layer was transferred to a new centrifuge tube. Cells were washed 3 times with balance solution and re-suspended in a culture medium appropriate to the application.
(§1) PBMCs (2×10^6 cells/sample) from CLL patients and healthy donors were treated with various concentrations of the peptide Antp-LP4-trp for 90 minutes. Cells were then gently washed once with PBS and stained with propidium iodide (PI) by adding 2.5 μl (1 mg/ml) and immediately analyzed for cell death. The level of cell death, reflected by the percentage of PI-positive cells, was determined by a flow cytometry analysis.
(§2) Preipheral blood mononuclear cells (PMBC) isolated from pateints having chronic lymphocytic leukemia (CLL) and MEC-1 cell lines (human chronic B-cell leukemia) were incubated for 90 min with Peptide N-ANTP (SEQ ID NO:73) at concentrations of 10-40 μM. Cell death was measured by PI staning and FACS analysis.
In ex vivo experiments, peripheral blood mononuclear cells (PBMCs) isolated from healthy individuals or CLL patients were incubated for 90 min with the indicated concentration of the ANTP-LP4-trp peptide. Cell death was assayed by PI staining and FACS analysis (healthy donors, n=34; CLL donors, n=39).

HeLa = system: HeLa
Experimental: (§3) To determine apoptosis, cells were subjected to staining with 100 μg/ml acridine orange (AcOr) and 100 μg/ml ethidium bromide (EtBr) in PBS. Cells were centrifuged at 1500×g for 5 min at room temperature and resuspended in 25 μl complete medium, to which 2 μl of an AcOr/EtBr solution were added. The cells were then visualized by fluorescence microscopy (Olympus IX51) and images were recorded with an Olympus DP70 camera, using a SWB filter. In each independent experiment, in which early and late apoptotic cells were counted, approximately 250 cells were counted for each treatment.
(§4) The effect of the peptides N-ANTP (having the amino acid sequence of SEQ ID NO:73) and ANTP-LP4-trp (having the amino acid sequence of SEQ ID NO:15) on apoptotoc cell death was examined with cancer cells of various trypes.
(§5) All cells were grown in DMEM accept PC3, D-U145, Molt-4, Jurkat, Mec-1, U937 grown in RPMI medium and HUH7 grown in F12/DMEM medium.

[2] = system: U937, MOLT4 and MEC-1 cells; test: Cancer cell death by L- or D-amino acid peptide; assay type: cell-based, human; conditions: average of two experiments
Text: The results are average of two experiments

Panc-1 = assay type: cell-based, human
Experimental: as §3
as §4, with “trypes. Table 6 below summarizes the cell line examined and concentration of each pepetide that gave 50% apoptotic cell death (IC50, μM).” for “trypes.”
as §5

T-Rex = assay type: cell-based, human
Experimental: as §3
as §4, with “trypes. Table 6 below summarizes the cell line examined and concentration of each pepetide that gave 50% apoptotic cell death (IC50, μM).” for “trypes.”
as §5

MOLT-4 = assay type: cell-based, human
Experimental: as §3
as §4, with “trypes. Table 6 below summarizes the cell line examined and concentration of each pepetide that gave 50% apoptotic cell death (IC50, μM).” for “trypes.”
as §5

U87 = assay type: cell-based, human
Experimental: as §3
as §4, with “trypes. Table 6 below summarizes the cell line examined and concentration of each pepetide that gave 50% apoptotic cell death (IC50, μM).” for “trypes.”
as §5

Mec-1 = assay type: cell-based, human
Experimental: as §3
as §4, with “trypes. Table 6 below summarizes the cell line examined and concentration of each pepetide that gave 50% apoptotic cell death (IC50, μM).” for “trypes.”
as §5

U937 = assay type: cell-based, human
Experimental: as §3
as §4, with “trypes. Table 6 below summarizes the cell line examined and concentration of each pepetide that gave 50% apoptotic cell death (IC50, μM).” for “trypes.”
as §5

MEC-1 cell line = assay type: cell-based, human
Experimental: as §1, §2

[3] = system: PBMCs isolated from healthy donors; test: Cell death, PI staining and FACS; assay type: cell-based, human; conditions: 90 min, n=34
Experimental: Peripheral blood mononuclear cells (PBMCs) were isolated from venous blood of patients with chronic lymphocytic leukemia (CLL) by Ficoll-Paque PLUS (GE Healthcare, Israel) density gradient centrifugation. After informed consent, venous blood (10 ml) was drawn from CLL patients satisfying diagnostic criteria for CLL or from normal adult donors. […]
as §1, with “analysis. […]” for “analysis.”

H358 = assay type: cell-based
Experimental: as §3
as §4, with “trypes. Table 6 below summarizes the cell line examined and concentration of each pepetide that gave 50% apoptotic cell death (IC50, μM).” for “trypes.”
as §5

T3M4 = assay type: cell-based
Experimental: as §3
as §4, with “trypes. Table 6 below summarizes the cell line examined and concentration of each pepetide that gave 50% apoptotic cell death (IC50, μM).” for “trypes.”
as §5

HUH7 = assay type: cell-based
Experimental: as §3
as §4, with “trypes. Table 6 below summarizes the cell line examined and concentration of each pepetide that gave 50% apoptotic cell death (IC50, μM).” for “trypes.”
as §5

A375 = assay type: cell-based
Experimental: as §3
as §4, with “trypes. Table 6 below summarizes the cell line examined and concentration of each pepetide that gave 50% apoptotic cell death (IC50, μM).” for “trypes.”
as §5

Hep-G2 = assay type: cell-based
Experimental: as §3
as §4, with “trypes. Table 6 below summarizes the cell line examined and concentration of each pepetide that gave 50% apoptotic cell death (IC50, μM).” for “trypes.”
as §5

K562 = assay type: cell-based
Experimental: as §3
as §4, with “trypes. Table 6 below summarizes the cell line examined and concentration of each pepetide that gave 50% apoptotic cell death (IC50, μM).” for “trypes.”
as §5

JURKAT = assay type: cell-based
Experimental: as §3
as §4, with “trypes. Table 6 below summarizes the cell line examined and concentration of each pepetide that gave 50% apoptotic cell death (IC50, μM).” for “trypes.”
as §5

THP-1 = assay type: cell-based
Experimental: as §3
as §4, with “trypes. Table 6 below summarizes the cell line examined and concentration of each pepetide that gave 50% apoptotic cell death (IC50, μM).” for “trypes.”
as §5

AsPC1 = assay type: cell-based
Experimental: as §3
as §4, with “trypes. Table 6 below summarizes the cell line examined and concentration of each pepetide that gave 50% apoptotic cell death (IC50, μM).” for “trypes.”
as §5

MDA-MB-231 = assay type: cell-based
Experimental: as §3
as §4, with “trypes. Table 6 below summarizes the cell line examined and concentration of each pepetide that gave 50% apoptotic cell death (IC50, μM).” for “trypes.”
as §5

A549 = assay type: cell-based
Experimental: as §3
as §4, with “trypes. Table 6 below summarizes the cell line examined and concentration of each pepetide that gave 50% apoptotic cell death (IC50, μM).” for “trypes.”
as §5

SKOV-3 = assay type: cell-based
Experimental: as §3
as §4, with “trypes. Table 6 below summarizes the cell line examined and concentration of each pepetide that gave 50% apoptotic cell death (IC50, μM).” for “trypes.”
as §5

MCF7 = assay type: cell-based
Experimental: as §3
as §4, with “trypes. Table 6 below summarizes the cell line examined and concentration of each pepetide that gave 50% apoptotic cell death (IC50, μM).” for “trypes.”
as §5

PBMCs = assay type: cell-based, human
Experimental: as §3
as §4, with “trypes. Table 6 below summarizes the cell line examined and concentration of each pepetide that gave 50% apoptotic cell death (IC50, μM).” for “trypes.”
as §5

PC-3 = test: Apoptosis induction by peptides, IC50; assay type: cell-based; conditions: PC-3, Prostate adenocarcinoma, Mut-P53, Androg↑
Experimental: as §3
as §4, with “trypes. Table 6 below summarizes the cell line examined and concentration of each pepetide that gave 50% apoptotic cell death (IC50, μM).” for “trypes.”
as §5

[4] = assay type: physicochemical
Experimental: The peptides N-ANTP (C-terminus), ANTP-LP4-trp, TAT-LP4-trp and Tf-LP4-trp were synthesized by GL Biochem (Shanghai, China). The N-terminal peptide was water-soluble, while the other peptides were dissolved in DMSO. The concentration of DMSO in control and peptide-containing samples was up to 4%.

Compound: CC[C@H](C)[C@H](NC(=O)[C@H](CCCCN)NC(=O)[C@@H](NC(=O)[C@H](CCC(N)=O)NC(=O)[C@H](CCCNC(=N)N)NC(=O)[C@@H](N)CCSC)[C@@H](C)CC)C(=O)N[C@@H](Cc1c[nH]c2ccccc12)C(=O)N[C@@H](Cc1ccccc1)C(=O)N[C@@H](CCC(N)=O)C(=O)N[C@@H](CC(N)=O)C(=O)N[C@@H](CCCNC(=N)N)C(=O)N[C@@H](CCCNC(=N)N)C(=O)N[C@@H](CCSC)C(=O)N[C@@H](CCCCN)C(=O)N[C@@H](Cc1c[nH]c2ccccc12)C(=O)N[C@@H](CCCCN)C(=O)N[C@@H](CCCCN)C(=O)N[C@@H](CO)C(=O)N[C@@H](Cc1c[nH]c2ccccc12)C(=O)N[C@H](C(=O)N[C@@H](Cc1c[nH]c2ccccc12)C(=O)N[C@@H](CCC(=O)O)C(=O)N[C@@H](CCCCN)C(=O)N[C@@H](CCCCN)C(=O)N[C@@H](CC(C)C)C(=O)N[C@@H](CCC(=O)O)C(=O)N[C@H](C(=O)N[C@@H](C)C(=O)N[C@H](C(=O)N[C@@H](CC(N)=O)C(=O)N[C@@H](CC(C)C)C(=O)N[C@@H](C)C(=O)N[C@@H](Cc1c[nH]c2ccccc12)C(=O)N[C@H](C(=O)N[C@@H](C)C(=O)NCC(=O)N[C@@H](CC(N)=O)C(=O)N[C@@H](CO)C(=O)N[C@@H](CC(N)=O)C(=O)N[C@@H](CCCCN)C(=O)N[C@@H](Cc1c[nH]c2ccccc12)C(=O)N[C@H](C(=O)N[C@@H](Cc1c[nH]c2ccccc12)C(=O)N[C@@H](CCCCN)C(=O)O)[C@@H](C)O)[C@@H](C)O)C(C)C)[C@@H](C)O)[C@@H](C)O [ANTP-LP4-trp]
- IC50 [1]: 200 to 250 nM
- correlation between relative amount of cancer cells (CD19+/CD5+) and peptide-induced cell death ([1]; 0.375 μM): tight correlation
- cell death of CLL-derived PBMCs ([1]; 90 min, CLL donors, n=39): highly effective in inducing cancer cell death
- IC50 (HeLa): 900 ± 30 nM
- cell-death induction, L- versus D-amino acid peptide [2]: irrespective to the D/L configuration
- IC50 (Panc-1): 6400 ± 600 nM
- IC50 (T-Rex): 6500 ± 900 nM
- IC50 (MOLT-4): 760 ± 200 nM
- IC50 (U87): 1400 ± 500 nM
- IC50 (Mec-1): 530 ± 100 nM
- IC50 (U937): 280 ± 100 nM
- IC50 (MEC-1 cell line): < 2000 nM
- effect on PBMCs isolated from healthy donors [3]: marginal
- IC50 (H358): 1500 ± 500 nM
- IC50 (T3M4): 500 ± 200 nM
- IC50 (HUH7): 600 ± 300 nM
- IC50 (A375): 6400 ± 600 nM
- IC50 (Hep-G2): 1600 ± 600 nM
- IC50 (K562): 260 ± 100 nM
- IC50 (JURKAT): 230 ± 100 nM
- IC50 (THP-1): 300 ± 100 nM
- IC50 (AsPC1): 2700 ± 1700 nM
- IC50 (MDA-MB-231): 1600 ± 600 nM
- IC50 (A549): 1500 ± 200 nM
- IC50 (SKOV-3): 1000 ± 200 nM
- IC50 (MCF7): 1900 ± 40 nM

Compound: MAVPPTYADLGKSARDVFTKGYGFGLMRQIKIWFQNRRMKWKK [N-ANTP]
- IC50 [1]: 3000 to 4000 nM
- IC50 (HeLa): 2700 ± 800 nM
- IC50 (Panc-1): 6200 ± 600 nM
- IC50 (PBMCs): 10100 ± 1200 nM
- IC50 (T-Rex): 5600 ± 900 nM
- IC50 (MOLT-4): 1100 ± 300 nM
- IC50 (U87): 1400 ± 600 nM
- IC50 (Mec-1): 930 ± 100 nM
- IC50 (U937): 580 ± 200 nM
- IC50 (MEC-1 cell line): 3000 to 4000 nM
- IC50 (PC-3): 400 ± 100 nM
- solubility [4]: water-soluble
- IC50 (H358): 2700 ± 200 nM
- IC50 (T3M4): 1300 ± 400 nM
- IC50 (HUH7): 1300 ± 300 nM
- IC50 (A375): 2800 ± 400 nM
- IC50 (Hep-G2): 3600 ± 1300 nM
- IC50 (K562): 600 ± 400 nM
- IC50 (JURKAT): 350 ± 500 nM
- IC50 (THP-1): 530 ± 30 nM
- IC50 (AsPC1): 6100 ± 100 nM
- IC50 (MDA-MB-231): 1500 ± 300 nM
- IC50 (A549): 2700 ± 500 nM
- IC50 (SKOV-3): 2000 ± 800 nM
- IC50 (MCF7): 2500 ± 600 nM
